US20180244611A1, “Modulators of the Cystic Fibrosis Transmembrane Conductance Regulator Protein and Methods of Use” (AbbVie S.à.r.l., priority 2017, published 2018)

Legend:
F508delCFTR [1] = target: T1, F508delCFTR (Homo sapiens, UniProt P13569, DEL508-508); test: Cell Surface Expression-Horse Radish Peroxidase (CSE-HRP) assay, test compound with co-corrector; type: cell-based; settings: for Maximum % activity (with co-corrector): maximum at any tested concentration;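 as to Maximum % activity (with co-corrector): percent of 2 µM positive control corrector over DMSO; co-corrector is that same compound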
T1 construct: expressed in transfected cells; host or cells: CFBE41o- human lung-derived epithelial cells (CFBE41o-F508delCFTR-HRP), doxycycline-inducible
Outline: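 CFBE41o- cells expressing F508delCFTR with HRP in the fourth exofacial loop, induced with 0.5 μg/mL doxycycline for 72 h, then treated 18-24 h at 33° C. with compound (8 points, top 20 μM, 3-fold) plus 2 μM co-corrector. Surface HRP read by luminol luminescence; activity normalised to positive control, EC50 from variable-slope sigmoidal fit.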

F508delCFTR [2] = target: T1, F508delCFTR; test: Cell Surface Expression-Horse Radish Peroxidase (CSE-HRP) assay, test compound without co-corrector; type: cell-based; settings: for Emax: maximum at any tested concentration, without co-corrector; for EC50: test compound without co-corrector;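 as to Emax: percent of on-plate 2 µM positive control corrector response over DMSO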
Outline: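 CFBE41o- cells expressing F508delCFTR with HRP in the fourth exofacial loop, induced with 0.5 μg/mL doxycycline for 72 h at 37° C, then exposed to compound alone for 18-24 h at 33° C, 8-point 3-fold series from 20 μM. Surface HRP read by luminol luminescence, normalized to positive corrector control versus DMSO; EC50 from variable-slope sigmoidal fit of three replicate plates.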

[3] = normalized to positive control, with 2 μM co-corrector

T1 sequence (P13569 with tags, fused parts or gaps DEL508-508): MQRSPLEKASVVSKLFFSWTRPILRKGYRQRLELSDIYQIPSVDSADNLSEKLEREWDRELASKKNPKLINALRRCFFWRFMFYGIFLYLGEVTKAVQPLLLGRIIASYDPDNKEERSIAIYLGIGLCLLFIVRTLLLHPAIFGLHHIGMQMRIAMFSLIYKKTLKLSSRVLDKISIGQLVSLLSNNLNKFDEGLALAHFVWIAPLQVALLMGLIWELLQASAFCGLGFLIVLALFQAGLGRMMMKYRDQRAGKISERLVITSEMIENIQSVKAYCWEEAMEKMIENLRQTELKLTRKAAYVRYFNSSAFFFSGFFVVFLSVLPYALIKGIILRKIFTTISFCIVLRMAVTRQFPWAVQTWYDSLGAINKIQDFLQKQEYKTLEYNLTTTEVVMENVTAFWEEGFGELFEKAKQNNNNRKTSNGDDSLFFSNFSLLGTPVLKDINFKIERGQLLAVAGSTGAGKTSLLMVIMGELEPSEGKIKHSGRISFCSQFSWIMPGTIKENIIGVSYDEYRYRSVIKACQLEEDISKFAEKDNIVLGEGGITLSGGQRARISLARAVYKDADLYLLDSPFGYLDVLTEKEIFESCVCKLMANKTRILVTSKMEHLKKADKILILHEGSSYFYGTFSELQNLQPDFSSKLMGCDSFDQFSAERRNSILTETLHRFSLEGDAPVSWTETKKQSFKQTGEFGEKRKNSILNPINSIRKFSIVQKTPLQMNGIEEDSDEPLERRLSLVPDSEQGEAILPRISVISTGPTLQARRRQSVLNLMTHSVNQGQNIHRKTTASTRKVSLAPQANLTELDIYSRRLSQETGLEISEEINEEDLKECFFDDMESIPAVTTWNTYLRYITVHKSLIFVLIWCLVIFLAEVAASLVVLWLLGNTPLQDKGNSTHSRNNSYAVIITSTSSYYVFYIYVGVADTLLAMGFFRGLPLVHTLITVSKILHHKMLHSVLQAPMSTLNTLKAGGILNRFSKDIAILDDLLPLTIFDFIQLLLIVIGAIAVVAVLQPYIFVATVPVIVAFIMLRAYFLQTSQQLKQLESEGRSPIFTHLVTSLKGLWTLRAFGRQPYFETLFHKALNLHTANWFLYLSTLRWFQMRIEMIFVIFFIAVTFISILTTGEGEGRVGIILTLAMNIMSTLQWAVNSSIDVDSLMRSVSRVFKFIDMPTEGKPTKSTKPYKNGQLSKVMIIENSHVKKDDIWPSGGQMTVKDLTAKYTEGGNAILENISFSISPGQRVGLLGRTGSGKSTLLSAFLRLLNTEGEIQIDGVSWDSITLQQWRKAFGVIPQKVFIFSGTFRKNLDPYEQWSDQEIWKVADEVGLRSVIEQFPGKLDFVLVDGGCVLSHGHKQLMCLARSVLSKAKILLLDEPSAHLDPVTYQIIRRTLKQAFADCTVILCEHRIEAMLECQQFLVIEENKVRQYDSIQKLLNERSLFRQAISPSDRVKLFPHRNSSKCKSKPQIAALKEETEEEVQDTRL

Row | SMILES | Maximum % activity (with co-corrector) (F508delCFTR [1]; [3]) | EC50 (F508delCFTR [1]; with 2 μM co-corrector) | Emax (F508delCFTR [2]; normalized to positive control) | EC50 (F508delCFTR [2]) | EC50 (F508delCFTR [1]; CSE-HRP assay, test compound with 2 μM co-corrector) | Maximum % activity (with co-corrector) (F508delCFTR [1]; normalized to on-plate positive control, with 2 μM co-corrector) | EC50 (F508delCFTR [2]; CSE-HRP assay) | Emax (F508delCFTR [2]; normalized to on-plate positive control)
1 | COc1cccc2c1CCC2C(=O)NS(=O)(=O)c1ccc2oc(=O)ccc2c1 (centres unmarked) [III-47] | + (<150) | ≥ 10 µM | < 50% | ≥ 10 µM |  |  |  | 
2 | CCOC(=O)c1ccc(S(=O)(=O)NC(=O)C2CCc3c(OC)cccc32)cc1 (centres unmarked) [III-48] | + (<150) | ≥ 10 µM | < 50% | ≥ 10 µM |  |  |  | 
3 | COc1cccc2c1CCC2C(=O)NS(=O)(=O)c1ccc(C)c([N+](=O)[O-])c1C (centres unmarked) [III-49] | ++ (≥150 and <350) | 3 to 10 µM | < 50% | ≥ 10 µM |  |  |  | 
4 | COc1cccc2c1CCC2C(=O)NS(=O)(=O)c1cc(C(=O)Nc2c(C)cccc2C)c(O)cc1Cl (centres unmarked) [III-50] | + (<150) | ≥ 10 µM | < 50% | ≥ 10 µM |  |  |  | 
5 | COc1cccc2c1CCC2C(=O)NS(=O)(=O)c1c(C)nn(CCCl)c1C (centres unmarked) [III-51] | + (<150) | ≥ 10 µM | < 50% | ≥ 10 µM |  |  |  | 
6 | CCN1CCC[C@H]1CNC(=O)c1cc(S(=O)(=O)NC(=O)C2CCc3c(OC)cccc32)ccc1OC (some centres unmarked) [III-52] | + (<150) | ≥ 10 µM | < 50% | ≥ 10 µM |  |  |  | 
7 | CCOc1ccc2nc(S(=O)(=O)NC(=O)C3CCc4c(OC)cccc43)sc2c1 (centres unmarked) [III-53] | + (<150) | ≥ 10 µM | < 50% | ≥ 10 µM |  |  |  | 
8 | CCCCCC(=O)c1ccc(S(=O)(=O)NC(=O)C2CCc3c(OC)cccc32)cc1 (centres unmarked) [III-54] | + (<150) | ≥ 10 µM | < 50% | ≥ 10 µM |  |  |  | 
9 | COc1cccc2c1CCC2C(=O)NS(=O)(=O)c1ccc(N2CCN(CC[C@@H]3OCCc4ccccc43)CC2)cc1 (some centres unmarked) [III-55] | + (<150) | 3 to 10 µM | < 50% | ≥ 10 µM |  |  |  | 
10 | COc1cccc2c1CCC2C(=O)NS(=O)(=O)c1ccccc1C(=O)OC(C)C (centres unmarked) [III-56] | +++ (≥350) | 3 to 10 µM | 50 to 150% | 3 to 10 µM |  |  |  | 
11 | COc1cccc2c1CCC2C(=O)NS(=O)(=O)c1ccc(NCCC(C)(C)O)c([N+](=O)[O-])c1 (centres unmarked) [III-57] | + (<150) | ≥ 10 µM | < 50% | ≥ 10 µM |  |  |  | 
12 | COc1cccc2c1CCC2C(=O)NS(=O)(=O)c1cc(-c2nc3c([nH]2)c(=O)n(C)c(=O)n3C)ccc1Cl (centres unmarked) [III-58] | ++ (≥150 and <350) | 3 to 10 µM | < 50% | 3 to 10 µM |  |  |  | 
13 | COc1cccc2c1CCC2C(=O)NS(=O)(=O)c1nc2c(c(=O)n(C)c(=O)n2C)n1Cc1ccc(Cl)cc1 (centres unmarked) [III-59] | + (<150) | ≥ 10 µM | < 50% | ≥ 10 µM |  |  |  | 
14 | COc1cccc2c1CCC2C(=O)NS(=O)(=O)c1nc2c(=O)n(C)c(=O)n(C)c2n1Cc1ccccc1 (centres unmarked) [III-60] | + (<150) | ≥ 10 µM | < 50% | ≥ 10 µM |  |  |  | 
15 | COc1cccc2c1CCC2C(=O)NS(=O)(=O)c1ccc(CN(C)C)cc1 (centres unmarked) [III-61] | + (<150) | ≥ 10 µM | < 50% | ≥ 10 µM |  |  |  | 
16 | COc1cccc2c1CCC2C(=O)NS(=O)(=O)c1cccc(F)c1C#N (centres unmarked) [III-62] | + (<150) | 3 to 10 µM | < 50% | ≥ 10 µM |  |  |  | 
17 | COc1cccc2c1CCC2C(=O)NS(=O)(=O)c1ccc(O)c([N+](=O)[O-])c1 (centres unmarked) [III-63] | + (<150) | ≥ 10 µM | < 50% | ≥ 10 µM |  |  |  | 
18 | COc1cccc2c1CCC2C(=O)NS(=O)(=O)c1cccc(C#N)c1 (centres unmarked) [III-64] | + (<150) | ≥ 10 µM | < 50% | ≥ 10 µM |  |  |  | 
19 | COc1cccc2c1CCC2C(=O)NS(=O)(=O)c1cncc(Br)c1 (centres unmarked) [III-65] | + (<150) | ≥ 10 µM | < 50% | ≥ 10 µM |  |  |  | 
20 | COc1cccc2c1CCC2C(=O)NS(=O)(=O)c1ccc(O)nc1 (centres unmarked) [III-66] | + (<150) | ≥ 10 µM | < 50% | ≥ 10 µM |  |  |  | 
21 | COc1cccc2c1CCC2C(=O)NS(=O)(=O)c1c(C(=O)OC(C)(C)C)c(C)nn1C (centres unmarked) [III-68] | + (<150) | ≥ 10 µM | < 50% | ≥ 10 µM |  |  |  | 
22 | COc1cccc2c1CCC2C(=O)NS(=O)(=O)c1c(CO)c(C)nn1C (centres unmarked) [III-69] | + (<150) | ≥ 10 µM | < 50% | ≥ 10 µM |  |  |  | 

Row | SMILES | Maximum % activity (with co-corrector) (F508delCFTR [1]; [3]) | EC50 (F508delCFTR [1]; with 2 μM co-corrector) | Emax (F508delCFTR [2]; normalized to positive control) | EC50 (F508delCFTR [2]) | EC50 (F508delCFTR [1]; CSE-HRP assay, test compound with 2 μM co-corrector) | Maximum % activity (with co-corrector) (F508delCFTR [1]; normalized to on-plate positive control, with 2 μM co-corrector) | EC50 (F508delCFTR [2]; CSE-HRP assay) | Emax (F508delCFTR [2]; normalized to on-plate positive control)
23 | COc1cccc2c1CCC2C(=O)NS(=O)(=O)c1cccc(Cl)c1F (centres unmarked) [III-70] | + (<150) | ≥ 10 µM | < 50% | ≥ 10 µM |  |  |  | 
24 | COc1cccc2c1CCC2C(=O)NS(=O)(=O)c1c(F)cccc1F (centres unmarked) [III-71] | ++ (≥150 and <350) | 3 to 10 µM | < 50% | ≥ 10 µM |  |  |  | 
25 | COc1ccc2c(c1OC)CCC2C(=O)NS(=O)(=O)c1ccccc1C (centres unmarked) [III-72] | + (<150) | ≥ 10 µM | < 50% | ≥ 10 µM |  |  |  | 
26 | COc1cccc2c1CCC2C(=O)NS(=O)(=O)c1cc(Cl)ccc1F (centres unmarked) [III-73] | + (<150) | ≥ 10 µM | < 50% | ≥ 10 µM |  |  |  | 
27 | COc1cccc2c1CCC2C(=O)NS(=O)(=O)c1cc(F)ccc1F (centres unmarked) [III-74] | + (<150) | ≥ 10 µM | < 50% | ≥ 10 µM |  |  |  | 
28 | COc1cccc2c1CCC2C(=O)NS(=O)(=O)c1cc(F)ccc1Cl (centres unmarked) [III-75] | + (<150) | ≥ 10 µM | < 50% | ≥ 10 µM |  |  |  | 
29 | COc1cccc2c1CCC2C(=O)NS(=O)(=O)c1c(Cl)cccc1Cl (centres unmarked) [III-76] | + (<150) | ≥ 10 µM | < 50% | ≥ 10 µM |  |  |  | 
30 | COc1cccc2c1CCC2C(=O)NS(=O)(=O)c1ccc(F)cc1F (centres unmarked) [III-77] | + (<150) | ≥ 10 µM | < 50% | ≥ 10 µM |  |  |  | 
31 | COCCn1cc(S(=O)(=O)NC(=O)C2CCc3c(OC)cccc32)cn1 (centres unmarked) [III-78] | + (<150) | ≥ 10 µM | < 50% | ≥ 10 µM |  |  |  | 
32 | COc1cccc2c1CCC2C(=O)NS(=O)(=O)c1c(C)noc1C (centres unmarked) [III-79] | + (<150) | ≥ 10 µM | < 50% | ≥ 10 µM |  |  |  | 
33 | COc1cccc2c1CCC2C(=O)NS(=O)(=O)c1sc(C)nc1C (centres unmarked) [III-80] | + (<150) | ≥ 10 µM | < 50% | ≥ 10 µM |  |  |  | 
34 | COc1cccc2c1CCC2C(=O)NS(=O)(=O)c1cccnc1 (centres unmarked) [III-81] | + (<150) | ≥ 10 µM | < 50% | ≥ 10 µM |  |  |  | 
35 | COc1cccc2c1CCC2C(=O)NS(=O)(=O)c1ncccc1C(=O)N(C)C (centres unmarked) [III-82] | + (<150) | ≥ 10 µM | < 50% | ≥ 10 µM |  |  |  | 
36 | COc1cccc2c1CCC2C(=O)NS(=O)(=O)c1cccnc1C#N (centres unmarked) [III-83] | + (<150) | ≥ 10 µM | < 50% | ≥ 10 µM |  |  |  | 
37 | COc1cccc2c1CCC2C(=O)NS(=O)(=O)c1ccccn1 (centres unmarked) [III-84] | + (<150) | ≥ 10 µM | < 50% | ≥ 10 µM |  |  |  | 
38 | COc1ccc(-c2cccc3c2CCC3C(=O)NS(=O)(=O)c2ccccc2C)cn1 (centres unmarked) [III-85] | ++ (≥150 and <350) | 3 to 10 µM | < 50% | ≥ 10 µM |  |  |  | 
39 | Cc1ccccc1S(=O)(=O)NC(=O)C1CCc2c(-c3ccc(N4CCCCC4)nc3)cccc21 (centres unmarked) [III-86] | ++ (≥150 and <350) | < 3 µM | 50 to 150% | 3 to 10 µM |  |  |  | 
40 | Cc1ccccc1S(=O)(=O)NC(=O)C1CCc2c(-c3ccc(N4CCN(C)CC4)nc3)cccc21 (centres unmarked) [III-87] | + (<150) | ≥ 10 µM | < 50% | ≥ 10 µM |  |  |  | 
41 | Cc1ccccc1S(=O)(=O)NC(=O)C1CCc2c(-c3cccnc3C)cccc21 (centres unmarked) [III-88] | + (<150) | ≥ 10 µM | < 50% | ≥ 10 µM |  |  |  | 
42 | Cc1ccccc1S(=O)(=O)NC(=O)C1CCc2c(-c3ccc(F)nc3)cccc21 (centres unmarked) [III-89] | ++ (≥150 and <350) | 3 to 10 µM | < 50% | ≥ 10 µM |  |  |  | 
43 | Cc1ccccc1S(=O)(=O)NC(=O)C1CCc2c(-c3ccc(N(C)C)nc3)cccc21 (centres unmarked) [III-90] | + (<150) | ≥ 10 µM | < 50% | ≥ 10 µM |  |  |  | 
44 | Cc1ccccc1S(=O)(=O)NC(=O)C1CCc2c(-c3cncc(F)c3)cccc21 (centres unmarked) [III-91] |  |  |  |  | ≥ 10 µM | + (<150) | ≥ 10 µM | < 50%
